# Patent US10206989B2, “CDCA1 epitope peptides for Th1 cells and vaccines containing the same” (OncoTherapy Science, Inc., priority 2012, dated 2019)
# Assays:
# [1] = test system: CDCA1-A24 (56-64)-specific CTLs; assay: In vitro cross-presentation assay with unfixed or fixed DCs, intracellular IFN-gamma; type: cell-based, human; conditions: cross presented by unfixed DCs (DC+LP); peptide 16 micro M, 3 h pulse
# Description: An HLA-A24^+ donor (HD2)-derived DCs were kept alive or fixed for 3 min in 0.1% glutaraldehyde (Sigma-Aldrich), pulsed with peptides (16 micro M) for 3 h, and washed 3 times. OK432 (0.1 KE/mL, Chugai Pharmaceutical Co, Tokyo, Japan) was added to induce the maturation of DCs during and after the peptide pulse. CDCA1-A24 (56-64)-reactive bulk CTLs were added at a 2:1 ratio for 6 h in medium containing 10 micro g/mL brefeldin A (Sigma-Aldrich). The brefeldin A was added to inhibit protein secretion during the stimulation. IFN-gamma production by the CDCA1-A24 (56-64)-specific CTLs was measured by intracellular labeling. The cells were stained with a FITC-labeled anti-human IFN-gamma mAb (BioLegend) in combination with a PerCP-labeled anti-human CD8 mAb (BioLegend) and a PE-labeled CDCA1-A24 (56-64)-specific tetramer. Data acquisition was performed on a FACSCalibur (BD Biosciences) and data files were analyzed with FlowJo software (Tree Star, Ashland, Oreg.).
# PBMCs (Th cells) = assay: CDCA1-LP specific CD4+ T-cell responses in PBMCs of HNC patients and healthy donors, IFN-gamma ELISPOT; type: cell-based, human
# Description: In the ELISPOT assays for HNC patients, after 1 week of cell culture with CDCA1-LPs, the cells were collected, washed, and cultured in ELISPOT plates (1×10^5/well) with CDCA1 (55-78)-LP, CDCA1 (39-64)-LP, or control LP (HIV-LP) for 18 h. The number of CDCA1-LP-specific Th cells expressed as spot-forming cells/10^5 cells was calculated after subtracting control values (background). Responses were scored as positive when the mean number of IFN-gamma spots numbered more than 15 and more than 2-fold over background. The ELISPOT assays on HNC patients' cells were conducted in single, duplicate, or triplicate wells because of the limited number of available cells.
# The PBMCs from the heparinized blood of HNC patients were isolated by means of Ficoll-Conray density gradient centrifugation. Fresh PBMCs from HNC patients or healthy donors were cultured with a mixture of CDCA1 (39-64)-LP and CDCA1 (55-78)-LP (10 micro g/mL each) in a final volume of 2 ml AIM-V supplemented with 5% human decomplemented plasma at 37 degrees C. (2×10^6/well, 24-well plates); IL-2 and IL-7 were added on day 0 and day 2. After 1 week of cell culture, the number of antigen-specific IFN-gamma producing T-cells was counted by ELISPOT assay. This study was conducted in a laboratory that operates under exploratory research principles, and was performed using investigative protocols. The inventors acknowledge the recommendations of the Minimal Information About T-cell Assay (MIATA) reporting framework for human T-cell assays (Britten C M et al., Immunity 2012; 37:1-2.).
# [2] = HNC patients after vaccination with CDCA1-A24 (56-64) SP
sequence,measurement,setting,value
NPKPEVLHMIYMRALQIVYGIRLEHF [CDCA1 (39-64)],IFN-gamma secreting tetramer+ CD8+ T-cells,[1],significant proportion
same,Patients with CDCA1-LP-specific Th cell responses (number),PBMCs (Th cells); [2],12 of 16
same,Patients with CDCA1-LP-specific Th cell responses (proportion),PBMCs (Th cells); [2],75%
same,HNC patients with CDCA1-LP-specific immune responses (number),PBMCs (Th cells); all HNC patients,14 of 19
same,HNC patients with CDCA1-LP-specific immune responses (proportion),PBMCs (Th cells); all HNC patients,74%
same,Patients with detectable CDCA1-LP-specific Th cell responses (number),PBMCs (Th cells); patients before vaccination,2 of 7
same,Patients with detectable CDCA1-LP-specific Th cell responses (proportion),PBMCs (Th cells); patients before vaccination,29%
